{
  "source": "patent EP1118615A1",
  "about": "“NOVEL SALTS OF PYRIDOPYRAZINE COMPOUND AND CRYSTALS THEREOF” (FUJISAWA PHARMACEUTICAL CO., LTD., priority 1998, dated 2000)",
  "key": {"[1]": {"system": "Guinea-pig model of delayed asthma", "experiment": "(B6) Guinea-pig model of delayed asthma", "assay_type": "in vivo, Hartley guinea pigs", "conditions": "oral 1 hour before exposure to the antigen; 4~8 hours after exposure", "description": "(B6) Guinea-pig model of delayed asthma\n[Method] Male Hartley guinea pigs were sensitized intraperitoneally with ovalbumin/Freund's complete adjuvant. On day 23 after immunization, the animals were caused to inhale a mist of ovalbumin solution from a sonic nebulizer for 3 minutes to elicit an asthmatic response. The drug was administered orally 1 hour before exposure to the antigen. The special airway resistance (sRaw) after exposure to the antigen was measured and the case in which the sRaw value had increased two-fold or more from the pre-exposure baseline in 4~8 hours was regarded as a case of delayed asthma."}, "[2]": {"system": "Arachidonic acid-induced ear edema model", "experiment": "(B7) Atopy, Method 1: arachidonic acid-induced ear edema model", "assay_type": "in vivo, Balb/c mice", "conditions": "oral 30 minutes before arachidonic acid; auricle thickness after 1 hour", "description": "[Method 1] Arachidonic acid-induced ear edema model:\nTo the left auricle of Balb/c mice, 2 mg/ear of arachidonic acid was applied to induce a skin inflammation. After 1 hour, the thickness of the auricle was measured with a peacock dial thickness gage and used as an indicator of skin inflammation. The drug was administered orally 30 minutes before application of arachidonic acid."}, "[3]": {"system": "DGalN-induced rat hepatitis model", "experiment": "(B2) DGalN-induced rat hepatitis model", "assay_type": "in vivo, Wistar rats", "conditions": "oral, 24 hours after DGalN", "description": "(B2) DGalN-induced rat hepatitis model\n[Method] Male Wistar rats aged 12 weeks were deprived of food for 24 hours and dosed orally with the drug or the solvent vehicle in predetermined doses. Immediately thereafter, saline was administered intraperitoneally to the NORMAL group and D-galactosamine hydrochloride (DGalN), 400 mg/kg, was administered similarly to the CONTROL and DRUG groups. At 24 hours after administration of DGalN, the blood was drawn and the liver isolated. Using the blood, the liver-derived en zymes (ALT, AST) in plasma were assayed. The liver was fixed in formalin and pathological specimens were prepared. Histopathological findings (inflammatory cell infiltration and liver cell necrosis) were evaluated."}, "[4]": {"system": "IL-2", "experiment": "(A3) Anti-CD3/CD28 antibody-stimulated cytokine production inhibitory activity in PBMC, ELISA: IL-2", "assay_type": "cell-based", "conditions": "Homo sapiens, anti-CD3 and anti-CD28 antibodies, 24-hr culture supernatant", "description": "(§1) (A3) Anti-CD3/CD28 antibody-stimulated TNF α production inhibitory activity in human peripheral blood monocytes (PBMC)\n(§2) [Method] Monocytes isolated from healthy adult male volunteers were cultured and stimulated with anti-CD3 and anti-CD28 antibodies and the amounts of TNF, INF, 1L-2, IL-4 and IL-10 in the 24-hr culture supernatant were determined by ELISA."}, "[5]": {"system": "IL-4", "experiment": "(A3) Anti-CD3/CD28 antibody-stimulated cytokine production inhibitory activity in PBMC, ELISA: IL-4", "assay_type": "cell-based", "conditions": "Homo sapiens, anti-CD3 and anti-CD28 antibodies, 24-hr culture supernatant", "description": "as §1, §2"}, "[6]": {"system": "TNF α", "experiment": "(A3) Anti-CD3/CD28 antibody-stimulated cytokine production inhibitory activity in PBMC, ELISA: TNF α", "assay_type": "cell-based", "conditions": "Homo sapiens, anti-CD3 and anti-CD28 antibodies, 24-hr culture supernatant", "description": "as §1, §2"}, "[7]": {"experiment": "Stability in solid state", "assay_type": "physicochemical", "parameters": "Water content: unit not given here", "from_the_text": "The crystallinity of hydrochloride was decreased when it was mixed with ethanol.\nIn the study on polymorphism of compound (I), six kinds of polymorphs (A01, A09, A16, A20, A30 and A43 crystals) were found. For each of those polymorphs, hygroscopicity, stability in solid state, solubility and changes in crystallinity on compounding with various solvents were studied. However, the A30 crystal was not studied since it contains ethanol.\n(2) Stability in solid state"}, "[8]": {"system": "DGalN/LPS-induced rat hepatitis model", "experiment": "(B1) DGalN/LPS-induced rat hepatitis model", "assay_type": "in vivo, Wistar rats", "conditions": "oral, 24 hr after DGalN/LPS", "description": "(B1) DGalN/LPS-induced rat hepatitis model\n[Method] Male Wistar rats aged 12 weeks were deprived of food for 24 hours and dosed orally with the drug or the solvent vehicle in predetermined doses. Immediately thereafter, saline was administered from the tail vein to the NORMAL group and D-galactosamine hydrochloride (DGalN) (300 mg/kg)/LPS (0.32 µg/kg) was administered similarly to the CONTROL and DRUG groups. At 24 hr after administration of DGaIN/LAS, the blood was drawn and the liver isolated. Using the blood, liver-derived enzymes (ALT and AST) in plasma were assayed. The liver was fixed in formalin and phathological specimens were prepared. Histopathological findings (inflammatory cell infiltration and liver cell necrosis) were evaluated."}, "[9]": {"system": "LEC rat spontaneous hepatitis model", "experiment": "(B5) LEC rat spontaneous hepatitis model", "assay_type": "in vivo, Long Evans Cinnamon (LEC) rats", "conditions": "oral once daily for 23 consecutive weeks", "description": "(B5) LEC rat spontaneous hepatitis model\nLong Evans Cinnamon (LEC) rats are known to spontaneously develop acute hepatitis with jaundice as a cardinal sign and 50~70% of them experience a fulminating stage and die. It is also known that almost all surviving animals run a clinical course of acute hepatitis-chronic hepatitis-biliary fibrosis (cirrhosis)-hepatocarcinoma.\n[Method] To 9-week-old male LEC rats, either the drug or the solvent vehicle was administered orally in predetermined doses once daily for 23 consecutive weeks. On the day following the last dosing day, the blood was drawn and the liver isolated. Using the blood, the liver-derived enzymes (ALT, AST) in plasma were assayed. The liver was fixed in formalin and pathological specimens were prepared. Histopathological findings (inflammatory cell infiltration, biliary hyperplasia and liver cell necrosis) were evaluated."}, "[10]": {"experiment": "physchem", "conditions": "thermodynamic from solid"}, "[11]": {"system": "IL-10", "experiment": "(A3) Anti-CD3/CD28 antibody-stimulated cytokine production inhibitory activity in PBMC, ELISA: IL-10", "assay_type": "cell-based", "conditions": "Homo sapiens, anti-CD3 and anti-CD28 antibodies, 24-hr culture supernatant", "description": "as §1, §2"}, "[12]": {"system": "ConA (concanavalin A) -induced mouse hepatitis model", "experiment": "(B3) ConA (concanavalin A)-induced mouse hepatitis model", "assay_type": "in vivo, Balb/c mice", "conditions": "18 hours after ConA", "description": "(B3) ConA (concanavalin A) -induced mouse hepatitis model\n[Method] Male Balb/c mice aged 9 weeks were deprived of food for 20 hours and the drug or the solvent vehicle was administered orally in predetermined doses. After 1 hour, saline was administered intravenously to the NORMAL group and concanavalin A, 0.4 mg/mouse, was administered similarly to the CONTROL and DRUG groups. At 18 hours after administration of ConA, the blood was drawn and the liver isolated. Using the blood, the liver-derived enzymes (ALT and AST) in plasma were assayed. The liver was fixed in formalin and pathological specimens were prepared. Histopathological findings (inflammatory cell infiltration and liver cell necrosis) were evaluated."}},
  "data": [
    {"smiles": "CS(=O)(=O)O.O.O.O=C(Nc1cccc(-n2c(=O)c(Cc3cccnc3)nc3cccnc32)c1)c1cc(Cl)cc(Cl)c1", "note": "[Example 2, 4-(3-(3,5-dichlorobenzoylamino)phenyl)-2-(3-pyridyl)methyl-3-oxo-3,4-dihydropyrido[2,3-b]pyrazine methanesulfonate dihydrate]", "values": [
      {"measurement": "delayed asthmatic response", "setting": "[1]", "result": "inhibited"},
      {"measurement": "ear edema", "setting": "[2]", "result": "significantly inhibited"},
      {"measurement": "elevation of blood ALT", "setting": "[3]", "result": "significantly inhibited"},
      {"measurement": "elevation of blood AST", "setting": "[3]", "result": "significantly inhibited"},
      {"measurement": "inflammatory cell infiltration", "setting": "[3]; histopathology", "result": "inhibited"},
      {"measurement": "liver cell necrosis", "setting": "[3]; histopathology", "result": "inhibited"},
      {"measurement": "IC50", "setting": "[4]", "result": 130, "unit": "nM"},
      {"measurement": "IC50", "setting": "[5]", "result": 155, "unit": "nM"},
      {"measurement": "IC50", "setting": "[6]", "result": 44.5, "unit": "nM"},
      {"measurement": "% Residue", "setting": "[7]; 70°C, 75% RH, 9 days", "result": 101.6, "unit": "%"},
      {"measurement": "Appearance", "setting": "[7]; 70°C, 75% RH, 9 days", "result": "Pale yellowish white crystalline powder"},
      {"measurement": "Crystal form", "setting": "[7]; 70°C, 75% RH, 9 days", "result": "Unchanged"},
      {"measurement": "Water content", "setting": "[7]; 70°C, 75% RH, 9 days", "result": 5.09},
      {"measurement": "% Residue", "setting": "[7]; 70°C, 9 days", "result": 100.3, "unit": "%"},
      {"measurement": "Appearance", "setting": "[7]; 70°C, 9 days", "result": "Pale yellowish white crystalline powder"},
      {"measurement": "Crystal form", "setting": "[7]; 70°C, 9 days", "result": "Unchanged"},
      {"measurement": "Water content", "setting": "[7]; 70°C, 9 days", "result": 1.68},
      {"measurement": "% Residue", "setting": "[7]; Initial", "result": 100.0, "unit": "%"},
      {"measurement": "Appearance", "setting": "[7]; Initial", "result": "Pale yellowish white white crystalline powder"},
      {"measurement": "Water content", "setting": "[7]; Initial", "result": 1.75},
      {"measurement": "change in crystal form", "setting": "[7]; heat and humidity, summary of Table 3", "result": "no change"},
      {"measurement": "chemical stability against heat and humidity", "setting": "[7]; summary of Table 3", "result": "chemically stable"},
      {"measurement": "elevation of blood ALT", "setting": "[8]", "result": "significantly inhibited"},
      {"measurement": "elevation of blood AST", "setting": "[8]", "result": "significantly inhibited"},
      {"measurement": "inflammatory cell infiltration", "setting": "[8]; histopathology", "result": "inhibited"},
      {"measurement": "liver cell necrosis", "setting": "[8]; histopathology", "result": "inhibited"},
      {"measurement": "elevation of blood ALT", "setting": "[9]", "result": "significantly inhibited"},
      {"measurement": "elevation of blood AST", "setting": "[9]", "result": "significantly inhibited"},
      {"measurement": "inflammatory cell infiltration", "setting": "[9]; histopathology", "result": "inhibited"},
      {"measurement": "liver cell necrosis", "setting": "[9]; histopathology", "result": "inhibited"},
      {"measurement": "solubility at 30 min", "setting": "[10]; saline or isotonic", "result": 64.3, "unit": "µg/mL"},
      {"measurement": "solubility at 30 min", "setting": "[10]; water", "result": 887, "unit": "µg/mL"},
      {"measurement": "IC50", "setting": "[11]", "result": 59.7, "unit": "nM"},
      {"measurement": "elevation of blood ALT", "setting": "[12]; oral 1 hour before ConA", "result": "significantly inhibited"},
      {"measurement": "elevation of blood AST", "setting": "[12]; oral 1 hour before ConA", "result": "significantly inhibited"},
      {"measurement": "inflammatory cell infiltration", "setting": "[12]; oral, histopathology", "result": "inhibited"},
      {"measurement": "liver cell necrosis", "setting": "[12]; oral, histopathology", "result": "inhibited"}
    ]}
  ]
}
